Assay results as given in US20130345061A1 (priority 2011, published 2013).
Several values for one entry are separate records, joined by “and”; a condition that tells them apart may be missing. Identical values can stand only once. Like-named read-outs stand apart in the source and are kept apart here.

Test system: Pseudomonas syringae pv. porri
Assay type: in vivo
Conditions: for % infection / Total number of positive leaves per object: repeats A and B
[1] = wetting agent 0, leek, natural washing off 15 mm, reading after 8 weeks
[2] = wetting agent (emulsion according to the invention) 0.25%, CuSO4 6 g/L
[3] = wetting agent (emulsion according to the invention) 0.50%, CuSO4 6 g/L
[4] = wetting agent (emulsion according to the invention) 1.00%, CuSO4 6 g/L

**Q.** With O=S(=O)([O-])[O-].[Cu+2] [CuSO4, copper sulfate] as the compound, how does the “significant difference to reference product Phyton 27 (statistical test)” value (copper sulfate with the wetting agent at 0.5% or 1%) read?
**A.** Its value is “equivalent to the reference product”.

**Q.** And the “% infection” value [1]?
**A.** Its value is 52% and 49%.

**Q.** And the “Total number of positive leaves per object” value (from here on “Total number … per object”) [1]?
**A.** Its value is 29.

**Q.** What about the “% infection” value [2] of the same compound?
**A.** The value was 35% and 37%.

**Q.** And the “Total number … per object” value [2]?
**A.** The value was 18 and 17.

**Q.** What about the “% infection” value [3] of the same compound?
**A.** The value was 31%.

**Q.** What about the “Total number … per object” value [3] of the same compound?
**A.** Its value is 17 and 16.

**Q.** What about the “% infection” value [4] of the same compound?
**A.** The value was 25% and 27%.

**Q.** And the “Total number … per object” value [4]?
**A.** The value was 13 and 15.

**Q.** And the “leaves attacked / level of infection per mode” value (without wetting agent, value for the whole mode)?
**A.** The value was “more than 50%”.
